From US20080031968A1, “Methods for increasing cellular energy expenditure” (priority 2005, published 2008)

Key:
HSMM = test: cAMP levels in human skeletal muscle myoblasts; assay type: cell-based; settings: 1 mM IBMX, 30 minutes
Protocol: HSMM were obtained from Cambrex (Walkersville, Md.) and were cultured according to the suppliers instructions. […] For the cAMP measurements, cells were preincubated 12 h in Opti-MEM (Life Technologies, Cergy Pontoise, France), supplemented with 1 mM IBMX. Then medium was changed and cells were incubated for another 1 h in Opti-MEM with 1 mM IBMX, after which the medium was replaced for Opti-MEM with 1 mM IBMX and the indicated compounds. After 30 minutes the cells were lysed for cAMP analysis.

KK-Ay mice [1] = test: CA in KK-Ay mice, body weight, OGTT and IPITT; assay type: in vivo, mouse
Protocol: (§1) Male C57BL/6J and KK-Ay mice, 6-7 weeks of age, were obtained from Charles River Laboratories France (l'Arbresle, France) and CLEA Japan Inc. (Tokyo, Japan), respectively. […] All mice were maintained in a temperature-controlled (23° C.) facility with a 12 h light/dark cycle and were given free access to food and water. The control and high-fat diet was obtained from UAR (Villemoison surOrge, France). […] GW4064 was suspended in peanut oil and mixed with the high fat diet at a concentration of 180 mg per kg of food. […] The mice were fasted 4 h before harvesting blood for subsequent blood measurements, and tissues for RNA isolation, lipid measurements and histology. Oxygen consumption was measured using the Oxymax apparatus (Columbus Instruments, Columbus, Ohio).
(§2) An OGTT was performed in animals that were fasted overnight. Glucose was administered by gavage at a dose of 2 g/kg. An IPITT was done in 4 h fasted animals. Insulin was injected at a dose of 0.75 U/kg. Glucose quantification was done with the Maxi Kit Glucometer 4 (Bayer Diagnostic, Puteaux, France) or Glucose RTU (bioMérieux Inc., Marcy l'Etoile, France). Plasma insulin concentrations were measured using ELISA (Cristal Chem Inc., Downers Grove, Ill.). Nonesterified fatty acids, triglycerides, ketone bodies, BA and total cholesterol were determined by enzymatic assays (Roche, Mannheim, Germany). cAMP was measured using the cAMP-Screen system (Applied Biosystems, Bedford, Mass.).

KK-Ay mice [2] = test: CA or GW4064 treatment of KK-Ay mice, serum lipids; assay type: in vivo, mouse; settings: KK-Ay mice; for lowered circulating TG levels / total plasma cholesterol decreased: 1 week
Protocol: (§3) Male C57BL/6J, KK-Ay, and ob/ob (C57BL/6J background) mice, 6-10 weeks of age, were obtained from Elevage Janvier (Le Genest St. Isle, France), CLEA Japan Inc. (Tokyo, Japan), and The Jackson Laboratory (Bar Harbor, Me., USA), respectively. All mice were maintained in a temperature-controlled (23° C.) facility with a 12-hour light/dark cycle and were given free access to food and water. The study protocols were approved by the institutional review boards. The body weight and food intake were measured every second day. The control and high-fat diet was obtained from UAR (Villemoisson sur Orge, France). […] The mice were fasted 4 hours before harvesting blood for subsequent lipid measurements, and tissues for RNA isolation, lipid measurements, and histology.
For measurement of liver TGs and cholesterol content, a liver was homogenized in chloroform/methanol (2:1 v/v) using a Polytron tissue grinder (Kinematica AG, Luzern, Switzerland). Lipid extracts were prepared by the classical Folch method. Extracts were dried under N2 flow and resuspended in isopropanol.

SHP+/+ and SHP-/- mice = test: FXR agonists in SHP+/+ and SHP-/- mice; assay type: in vivo, mouse; settings: for hepatic expression of SREBP-1c, ME, CYP7A1 and ANGPTL3: 1-day treatment
Protocol: as §3

wildtype and D2-/- mice = test: Diet-induced obesity in D2-/- mice and littermate controls; assay type: in vivo, mouse
Protocol: as §1
Next, we used mice with a targeted disruption of the D2 gene (D2−/− mice) and littermate controls in a diet-induced obesity study for 50 days.

[3] = system: wild-type and LXRα/β-/- mice; test: CA diet in wild-type and LXRα/β-/- mice; assay type: in vivo, mouse; settings: 0.5% CA for 3 days
Protocol: as §3
To determine whether LXR is essential for the TG-lowering effect of bile acids, we used LXRα/LXRβ double-knockout mice ([…]).

C57BL/6J mice [4] = test: Diet-induced obesity in C57BL/6J mice; assay type: in vivo, mouse
Protocol: as §1, §2
Pieces of mouse tissues were fixed in Bouin's solution, dehydrated in ethanol, embedded in paraffin, and cut at a thickness of 5 μm. Sections were deparaffinized, rehydrated, and stained with haematoxylin and eosin. Transmission electron microscopy was then performed.

C57BL/6J mice [5] = test: LXR agonist-induced lipogenesis in C57BL/6J mice with or without CA; assay type: in vivo, mouse
Protocol: as §3
Mice were gavaged with the LXR agonist T0901317 or vehicle, and the different diets were continued for one more day, after which the mice were sacrificed.

KK-Ay and C57BL/6J mice = test: Tissue mRNA levels by quantitative RT-PCR after CA supplementation; assay type: in vivo, mouse
Protocol: as §3
Total RNA was extracted from frozen tissue samples or cells using the RNeasy kit (QIAGEN, Courtaboeuf, France). cDNA was synthesized from total RNA with the SuperScript First-Strand Synthesis System (Invitrogen) and random hexamer primers. The real-time PCR measurement of individual cDNAs was performed using SYBR green dye to measure duplex DNA formation with the LightCycler System (Roche Diagnostics, Meylan, France). The sequences of the primer sets used are available online at http://www-igbmc.ustrasbg.fr/Departments/Dep_V/Dep_VA/Publi/Paper.html.

KK-Ay mice [6] = test: In vivo VLDL TG production (Tyloxapol) in KK-Ay mice; design: species or system mouse; settings: 1 week of CA feeding, chow and high-fat diet
humans = settings: cited from earlier work
BAT of C57BL/6J mice = test: BAT gene expression by microarray and Q-RT-PCR; assay type: in vivo, mouse
Protocol: For microarray analysis, RNA was isolated from BAT using the RNeasy mini kit (QIAGEN, Courtaboeuf, France). Equal amounts of RNA from mice in each group were pooled (n=3 or 4 mice) and used for cDNA synthesis. After second-strand cDNA synthesis (Life Technologies, Cergy Pontoise, France), in vitro transcription was performed with biotinylated UTP and CTP (Enzo Diagnostics, Farmingdale, N.Y.). Fragmented cRNA samples were hybridized to the Affymetrix MOE430A microarray. The raw data was analyzed using the Microarray Suite Software version 5.0 (MAS5.0, Affymetrix, Santa Clara, Calif.).

BAT = test: cAMP levels in BAT of mice fed high fat diet with CA; assay type: in vivo, mouse; settings: mice fed high fat diet with CA vs control mice
Protocol: as §2

C57BL/6J mice [7] = test: Indirect calorimetry (Oxymax); assay type: in vivo, mouse
Protocol: as §1

[8] = KK-Ay mice, CA added to normal chow diet
[9] = CA feeding, HPLC of lipoproteins
[10] = high fat diet supplemented with CA, histology
[11] = CA coadministration with T0901317
[12] = KK-Ay and C57BL/6J mice, 1 and 7 days CA in chow

C[C@H](CCC(=O)O)[C@H]1CC[C@H]2[C@@H]3[C@H](O)C[C@@H]4C[C@H](O)CC[C@]4(C)[C@H]3C[C@H](O)[C@]12C [CA, cholic acid]
cAMP levels (HSMM): increased cAMP levels in a dose-dependant fashion
body weight (KK-Ay mice [1]; [8]): decreased body weight
metabolic control (oral glucose tolerance test, intraperitoneal insulin tolerance test) (KK-Ay mice [1]; [8]): improved metabolic control
insulin sensitivity (KK-Ay mice [1]; KK-Ay mouse): improve insulin sensitivity
HDL cholesterol (KK-Ay mice [2]; [9]): decreasing HDL cholesterol
VLDL TGs (KK-Ay mice [2]; [9]): decreasing VLDL TGs
plasma FFAs (KK-Ay mice [2]; CA feeding, particularly on high-fat diet): decreased plasma FFAs
lowered circulating TG levels (KK-Ay mice [2]; high-fat diet with 0.5% CA): 65%
total plasma cholesterol decreased (KK-Ay mice [2]; high-fat diet with 0.5% CA): 35%
lowered circulating TG levels (KK-Ay mice [2]; normal-chow diet with 0.5% CA): 51%
total plasma cholesterol decreased (KK-Ay mice [2]; normal-chow diet with 0.5% CA): 24%
serum TGs (SHP+/+ and SHP-/- mice; SHP+/+ mice, 0, 3 and 7 days): significantly lowered
hepatic expression of SREBP-1c, ME, CYP7A1 and ANGPTL3 (SHP+/+ and SHP-/- mice; SHP+/+ mice): significantly reduced
decrease in serum TGs (SHP+/+ and SHP-/- mice; SHP-/- mice): completely abolished
hepatic expression of SREBP-1c, ME, CYP7A1 and ANGPTL3 (SHP+/+ and SHP-/- mice; SHP-/- mice): no decrease
development of obesity (wildtype and D2-/- mice; D2-/- mice, CA added to high fat diet, 50 days): no effect
diet induced obesity (wildtype and D2-/- mice; wildtype mice, CA added to high fat diet, 50 days): prevented diet induced obesity
expression of PGC-1α in BAT (wildtype and D2-/- mice; wildtype mice, CA feeding): significantly induced
decrease in serum TGs, SREBP-1c and ME ([3]; LXRα/β-/- mice): not observed
SHP expression ([3]; wild-type and LXRα/β-/- animals): induced significantly
serum TG ([3]; wild-type animals): decreased serum TG
glucose tolerance (C57BL/6J mice [4]; C57BL/6J mice with diet-induced obesity): improves glucose tolerance
body weight gain (C57BL/6J mice [4]; chow diet supplemented with CA): no effect
high fat-induced changes in adipose mass and morphology (C57BL/6J mice [4]; diet supplementation with CA): completely prevented
weight gain (C57BL/6J mice [4]; high fat diet supplemented with 0.5% CA): reduced the weight gain
adipocyte hypertrophy in WAT and BAT (C57BL/6J mice [4]; [10]): not observed
liver steatosis (C57BL/6J mice [4]; [10]): reversed
120-days of diet-induced weight gain (C57BL/6J mice [4]; obese mice switched to high fat diet containing CA): reversed
time to return to normal body weight (C57BL/6J mice [4]; obese mice switched to high fat diet containing CA (F-FA)): ≤ 30 days
SHP expression (C57BL/6J mice [5]; [11]): increased SHP expression
SREBP-1c and its target genes (C57BL/6J mice [5]; [11]): prevented the induction
LXR agonist induction of liver weight and serum TGs (C57BL/6J mice [5]; coadministration of 0.5% CA with T0901317): completely prevented
hepatic expression of MCAD and LCAD (KK-Ay and C57BL/6J mice; C57BL/6J mice, 1 and 7 days CA): significantly decreased
expression of lipogenic genes in white adipose tissue (KK-Ay and C57BL/6J mice; CA treatment): none of the lipogenic genes were lowered
hepatic expression of SHP (KK-Ay and C57BL/6J mice; CA treatment): robust induction
hepatic expression of AceCS, ME and SCD-1 (KK-Ay and C57BL/6J mice; [12]): significantly reduced
hepatic expression of LXRA, LRH-1, FXR and SREBP-2 (KK-Ay and C57BL/6J mice; [12]): No major changes
hepatic expression of CPT-I, MCAD and LCAD (KK-Ay and C57BL/6J mice; KK-Ay mice, CA): no change
liver VLDL production (KK-Ay mice [6]): significantly decreased
hepatotoxicity (humans): significant hepatotoxicity
expression of PGC-1α, PGC-1β, UCP-1, UCP-3, ACO, mCPT-I and D2 in BAT (BAT of C57BL/6J mice; C57BL/6J mice fed 47 days, diet mixed with CA, Q-RT-PCR): significantly increased
genes involved in control of energy expenditure incl. D2 in BAT (microarray) (BAT of C57BL/6J mice; high fat diet mixed with CA or CDCA for 9 days): upregulated
cAMP levels in BAT (BAT): significantly elevated
CO2 production and O2 consumption (C57BL/6J mice [7]; high fat diet containing CA vs high fat or normal diet): higher
respiratory quotient (RQ=VCO2/VO2) (C57BL/6J mice [7]; high fat diet supplemented with CA): not affected
